Results taken from article PMC2151583 (The Journal of General Physiology, 2006).
Residue numbers refer to the chain shown, from its start.

Columns and labels:
Experiment in all cases: inside-out patch clamp, Xenopus oocytes
HCN2 [1] = target: T1, HCN2 (Mus musculus, UniProt O88703); format: cell-based
T1 sequence (O88703 1-863): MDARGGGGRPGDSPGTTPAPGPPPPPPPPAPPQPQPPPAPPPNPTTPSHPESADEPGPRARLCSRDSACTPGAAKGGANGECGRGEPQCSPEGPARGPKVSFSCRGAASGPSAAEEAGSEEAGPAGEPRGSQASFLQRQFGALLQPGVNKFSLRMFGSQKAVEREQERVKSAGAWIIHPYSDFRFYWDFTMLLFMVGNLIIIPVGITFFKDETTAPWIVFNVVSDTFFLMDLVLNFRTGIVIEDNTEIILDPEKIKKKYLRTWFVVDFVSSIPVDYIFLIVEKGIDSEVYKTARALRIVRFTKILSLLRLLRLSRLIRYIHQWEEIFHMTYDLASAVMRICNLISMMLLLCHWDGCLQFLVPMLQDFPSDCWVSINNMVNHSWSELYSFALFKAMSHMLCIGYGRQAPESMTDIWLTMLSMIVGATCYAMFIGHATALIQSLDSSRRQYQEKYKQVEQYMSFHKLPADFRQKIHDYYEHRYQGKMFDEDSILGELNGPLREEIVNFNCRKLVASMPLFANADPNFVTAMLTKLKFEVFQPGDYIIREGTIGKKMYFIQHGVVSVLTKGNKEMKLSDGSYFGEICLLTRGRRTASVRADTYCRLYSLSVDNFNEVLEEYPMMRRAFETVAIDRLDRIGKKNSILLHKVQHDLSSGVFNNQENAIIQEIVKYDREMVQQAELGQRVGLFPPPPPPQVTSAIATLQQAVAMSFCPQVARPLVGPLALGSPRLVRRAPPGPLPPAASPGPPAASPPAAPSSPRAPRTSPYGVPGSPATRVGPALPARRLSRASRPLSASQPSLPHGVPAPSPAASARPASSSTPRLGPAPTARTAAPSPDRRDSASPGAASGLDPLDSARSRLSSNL

HCN2 [2] = target: T1, HCN2; format: biochemical
HCN2/FPN = target: T2, HCN2/FPN (Mus musculus, UniProt O88703, Q450F/E451P/K452N); format: cell-based
T2 sequence (O88703 1-863 Q450F/E451P/K452N): T1 sequence (O88703 1-863) with Q450F, E451P, K452N

HCN2 [3] = target: T1, HCN2; format: cell-based; remark: listed apart in the source

| Compound | inside-out patch clamp, Xenopus oocytes; shift in V1/2 at 25 μM (HCN2 [1]) [mV] | inside-out patch clamp, Xenopus oocytes; shift in V1/2 at 1 μM (HCN2 [3]) | also measured |
| --- | --- | --- | --- |
| CCCCCCCC(=O)OC[C@H](COP(=O)(O)O[C@H]1[C@H](O)[C@@H](O)[C@H](OP(=O)(O)O)[C@@H](OP(=O)(O)O)[C@H]1O)OC(=O)CCCCCCC [diC8 PI(3,4)P2, dioctanoyl phosphatidylinositol 3,4-bisphosphate] | 12.3 | – | – |
| CCCCCCCC(=O)OC[C@H](COP(=O)(O)O[C@H]1[C@H](O)[C@@H](OP(=O)(O)O)[C@H](OP(=O)(O)O)[C@@H](OP(=O)(O)O)[C@H]1O)OC(=O)CCCCCCC [diC8 PI(3,4,5)P3, dioctanoyl phosphatidylinositol 3,4,5-trisphosphate] | 9.3 | – | – |
| CCCCCCCC(=O)OC[C@H](COP(=O)(O)O[C@@H]1[C@H](O)[C@H](O)[C@@H](OP(=O)(O)O)[C@H](OP(=O)(O)O)[C@H]1O)OC(=O)CCCCCCC [diC8 PI(4,5)P2, dioctanoyl phosphatidylinositol 4,5-bisphosphate] | – | – | EC50 (HCN2 [2]): 10.9 µM; inside-out patch clamp, Xenopus oocytes; shift in V1/2 at 25 μM (HCN2/FPN): +13.9 mV |
| phosphatidylinositol 4,5-bisphosphate [native PI(4,5)P2] | – | +31.8 mV | – |
| CCCCCCCC(=O)OC[C@H](COP(=O)(O)O[C@H]1[C@H](O)[C@@H](O)[C@H](OP(=O)(O)O)[C@@H](O)[C@H]1O)OC(=O)CCCCCCC [diC8 PI(4)P, dioctanoyl phosphatidylinositol 4-phosphate] | 7.5 | – | – |
| CCCCCCCC/C=C\CCCCCCCC(=O)SCCNC(=O)CCNC(=O)[C@H](O)C(C)(C)COP(=O)(O)OP(=O)(O)OC[C@H]1O[C@@H](n2cnc3c(N)ncnc32)[C@H](O)[C@@H]1OP(=O)(O)O [oleoyl CoA, Oleoyl CoA] | – | +16.0 mV | – |
